The record followed here is PubChem BioAssay (NCI).

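The compound was tested at five concentrations on cells cultured in 96-well plates, with a 48-hour exposure period. GI50 marks 50% less growth. At the TGI there is no net growth.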

Among the test systems are SK-OV-3 ovarian; SF-295 CNS; SK-MEL-28 melanoma; SR leukemia; SN12C renal; NCI-H226 lung; UO-31 renal; NCI/ADR-RES ovarian; HS 578T breast; NCI-H522 lung.
Common to all, as to experiment: NCI-60 cell line screen, 48 h

`Oc1cc2c(cc1C(c1ccc3c(c1)OCO3)N1CCN(C(c3ccc4c(c3)OCO4)c3cc4c(cc3O)OCO4)CC1)OCO2` (stereo not drawn): the TGI with SK-OV-3 ovarian was found to be 94.8 µM; in the assay on SF-295 CNS, 33.2 µM; in the assay on SK-MEL-28 melanoma it was 8.46 µM; in the assay on SR leukemia it was 14.6 µM; in the assay with SN12C renal it was 31 µM; with NCI-H226 lung it was 29.6 µM. Further, the TGI in the assay on UO-31 renal came out at 29.3 µM; in the assay on NCI/ADR-RES ovarian, 55.4 µM; in the assay with HS 578T breast, 30.5 µM; in the assay on NCI-H522 lung it was 33.5 µM.
As for `CNC1=CC(=O)C2=C(C1=O)C1C3=C(C(=O)C(Br)=C(OC)C3=O)C2c2ccccc21` (stereo not drawn), the GI50 in the assay with SK-OV-3 ovarian is 2.15 µM; in the assay with SF-295 CNS it was 2.85 µM; in the assay on SK-MEL-28 melanoma, 2.34 µM; with SN12C renal, 1.05 µM; with NCI-H226 lung it was 6.66 µM; with UO-31 renal, 1.98 µM. Moreover, the results for the GI50 with NCI/ADR-RES ovarian, with HS 578T breast and in the assay with NCI-H522 lung were 1.55 µM, 2.72 µM and 1.3 µM, respectively. Also, the TGI is > 50 µM in the assay on SK-OV-3 ovarian; 10 µM in the assay with SF-295 CNS; > 50 µM in the assay with SK-MEL-28 melanoma; 2.07 µM in the assay with SN12C renal; 14.7 µM in the assay on NCI-H226 lung; 5.87 µM with UO-31 renal. Further, the TGI turned out to be 8.18 µM with NCI/ADR-RES ovarian, 22.1 µM in the assay on HS 578T breast and 2.98 µM in the assay on NCI-H522 lung.
On to `NC(=S)N/N=C/c1ccc(OC(=O)COc2ccccc2)cn1`, for which the GI50 was 40.9 µM with SK-OV-3 ovarian; 20.7 µM in the assay on SF-295 CNS; 44.4 µM in the assay on SK-MEL-28 melanoma; 0.596 µM in the assay with SR leukemia; 5.3 µM in the assay on SN12C renal; 20.3 µM in the assay with NCI-H226 lung. Also, the GI50 in the assay with UO-31 renal was 3.91 µM; with NCI/ADR-RES ovarian, 4.14 µM; in the assay with HS 578T breast, 68.4 µM; with NCI-H522 lung, 8.6 µM. The TGI was > 100 µM in the assay with SK-OV-3 ovarian; > 100 µM in the assay with SF-295 CNS; > 100 µM in the assay on SK-MEL-28 melanoma; > 100 µM in the assay on SR leukemia; > 100 µM in the assay on SN12C renal; 64 µM in the assay on NCI-H226 lung. For the same molecule, the TGI in the assay with UO-31 renal was 39.2 µM; with NCI/ADR-RES ovarian it was > 100 µM; with HS 578T breast it was > 100 µM; with NCI-H522 lung, 57.2 µM.
As to `Cc1[nH]c(=O)nc(N/N=C/c2ccc(Cl)cc2)c1C(=O)Nc1ccc(Cl)cc1`, the TGI was 57.9 µM in the assay with SK-OV-3 ovarian; 43.4 µM in the assay with SF-295 CNS; > 86.1 µM with SK-MEL-28 melanoma; > 100 µM in the assay on SR leukemia; > 100 µM in the assay with SN12C renal; > 100 µM in the assay with NCI-H226 lung. The TGI with UO-31 renal is > 100 µM; with NCI/ADR-RES ovarian it was > 100 µM; in the assay with HS 578T breast, > 100 µM; in the assay on NCI-H522 lung, 64.1 µM.
In the case of `CC(=O)OC1CC2(O)C(CCC3(C)C(c4ccc(=O)oc4)CCC32O)C2(C)CCC(OC3OC(CO)C(O)C(O)C3O)C=C12` (stereo not drawn), the GI50 in the assay with SK-OV-3 ovarian was 0.0447 µM; with SF-295 CNS it was 0.0302 µM; in the assay on SK-MEL-28 melanoma, 0.049 µM; in the assay with SR leukemia it was 0.015 µM; in the assay with NCI-H226 lung it was 0.051 µM; in the assay with UO-31 renal, 0.0182 µM. Moreover, the GI50 in the assay on NCI/ADR-RES ovarian was 0.0172 µM; with HS 578T breast, 0.0103 µM; in the assay with NCI-H522 lung it was < 0.01 µM. Moreover, the TGI with SK-OV-3 ovarian stood at 0.717 µM; in the assay with SF-295 CNS, 0.168 µM; with SK-MEL-28 melanoma, 0.231 µM; in the assay on SR leukemia, 0.0541 µM; in the assay on NCI-H226 lung it was 0.176 µM; in the assay with UO-31 renal, 0.0466 µM. Further, the TGI was determined as 0.0541 µM in the assay with NCI/ADR-RES ovarian, 0.701 µM in the assay on HS 578T breast and 0.148 µM in the assay on NCI-H522 lung.
`C=C(CN(C)Cc1ccccc1)c1ccc(C(=O)Nc2ccccc2N)cc1`: the GI50 is 5.28 µM with SK-OV-3 ovarian; 5.4 µM in the assay on SF-295 CNS; 7.79 µM with SK-MEL-28 melanoma; 2.87 µM in the assay with SR leukemia; 2.08 µM with UO-31 renal; 1.07 µM with NCI/ADR-RES ovarian. The GI50 in the assay with HS 578T breast was 3.66 µM. Moreover, the TGI is 14.4 µM in the assay with SK-OV-3 ovarian; 16.7 µM with SF-295 CNS; > 50 µM in the assay on SK-MEL-28 melanoma; > 50 µM with SR leukemia; 8.41 µM in the assay on UO-31 renal; 4.94 µM with NCI/ADR-RES ovarian. The molecule also gave a TGI with HS 578T breast of 33.6 µM.
`Cc1ccc(S(=O)(=O)NNC(C[N+](=O)[O-])c2ccccc2)cc1` (stereo not drawn): the TGI in the assay on SK-OV-3 ovarian is 46.3 µM; in the assay on SF-295 CNS, 49.2 µM; in the assay on SR leukemia, 5.56 µM; in the assay with SN12C renal, > 100 µM; in the assay on NCI-H226 lung it was 90 µM; in the assay on UO-31 renal it was 48.6 µM. In addition, the figures for the TGI in the assay on NCI/ADR-RES ovarian, in the assay on HS 578T breast and in the assay on NCI-H522 lung were > 100 µM, > 100 µM and 44.1 µM, respectively.
As to `Cc1ccc(S(=O)(=O)N[C@@H](Cc2ccccc2)C(=O)CCl)cc1`, the GI50 in the assay with SK-OV-3 ovarian was 47.5 µM; with UO-31 renal, 16.3 µM; in the assay with NCI/ADR-RES ovarian, 22.3 µM; in the assay with HS 578T breast, 21.2 µM; in the assay on NCI-H522 lung, 11.5 µM. Also, the TGI in the assay with SK-OV-3 ovarian is > 100 µM; in the assay with SF-295 CNS it was 41.7 µM; in the assay with SK-MEL-28 melanoma it was 53.7 µM; in the assay with UO-31 renal, 39 µM; in the assay on NCI/ADR-RES ovarian, 65.7 µM; with HS 578T breast, 64.1 µM. The same molecule showed a TGI in the assay on NCI-H522 lung of 37.1 µM.
Consider `Oc1c(Cl)cc(CN(Cc2cc(Cl)c(O)c(Cl)c2)C2CCCCC2)cc1Cl`, for which the TGI in the assay with SK-OV-3 ovarian, in the assay with SF-295 CNS, in the assay with SK-MEL-28 melanoma, with SR leukemia, in the assay on SN12C renal and in the assay with UO-31 renal was > 100 µM each time. The TGI with NCI/ADR-RES ovarian, in the assay on HS 578T breast and with NCI-H522 lung was > 100 µM each time.
For the molecule `CCOc1ccc2c(c1)C(=O)c1c-2n(CCCN)c(=O)c2cc([N+](=O)[O-])ccc12`, the GI50 in the assay with SF-295 CNS is 0.0146 µM; in the assay with SK-MEL-28 melanoma, 1.37 µM; in the assay with SR leukemia, < 0.01 µM; with SN12C renal it was 0.0667 µM; in the assay on NCI-H226 lung it was 1.22 µM; in the assay on UO-31 renal, < 0.01 µM. In addition, the GI50 in the assay with NCI/ADR-RES ovarian is 0.0558 µM; in the assay on HS 578T breast, 1.93 µM; in the assay on NCI-H522 lung, 0.0134 µM. Further, the TGI was determined as 1.19 µM in the assay on SF-295 CNS; 2.89 µM in the assay on SK-MEL-28 melanoma; 2.17 µM in the assay on SR leukemia; 1.93 µM in the assay with SN12C renal; 3.26 µM in the assay on NCI-H226 lung; 0.205 µM in the assay with UO-31 renal. Also, the TGI in the assay on NCI/ADR-RES ovarian was determined as 1.82 µM; in the assay on HS 578T breast, 4.04 µM; in the assay on NCI-H522 lung, 1.52 µM.
